Experimental data: US5049372A, “Anticancer activities in a host by increasing blood and plasma adenosine 5'-triphosphate (ATP) levels” (priority 1988, dated 1991)

Assays:
RBC ATP pools [1] = experiment: Stability of expanded RBC ATP pools in washed isolated RBCs in vitro after i.p. injection (Table 5); design: species or system mouse; settings: average of two experiments
Description: (§1) The mice are anesthetized with ether during the procedure. Plasma or Hanks' (Balanced Salt Solution) BSS media from incubated isolated RBCs (Red Blood Cells) are prepared by centrifugation of whole blood or RBCs in a Beckman microfuge (30 seconds at 8000 xg) and samples of 100 μl are added to 1 ml of ice-cold 7% trichloroacetic acid. Red blood cells are prepared by centrifugation of whole blood (1500 xg for 5 minutes at 4° C.) and removal of plasma and the buffy coat is followed by a wash of the pelleted RBCs (from 250 μl of whole blood) in 5 ml of ice-cold Hanks' BSS. After centrifugations, the RBCs pellet is resuspended in Hanks' BSS to yield a total volume with the original hematocrit (percent of RBCs volume in the whole blood). Aliquots of 20 μl of RBCs suspensions or whole blood are added to 1 ml of ice-cold 7% trichloroacetic acid. Extraction of acid-soluble nucleotides and determinations of ATP levels by luminometry followed procedures discussed hereinabove. Levels of [^3 H]ATP in whole blood, RBCs, plasma, or RBCs incubation media (Hanks' BSS) are determined after incorporation of 250 μCi of [^3 H]adenosine of specific radioactivity of 30 Ci/mmol (1 Ci=3.7×10^10 becquerels) into whole blood or RBC suspensions (250 μl total) followed by immediate trichloroacetic acid extractions as described above. Two dimensional thin layer chromatography on poly(ethylene)imine cellulose with an unlabeled ATP carrier is performed according to Bochner and Ames, J. Biol. Chem., 257, pp. 9759-9769, 1982). For the determination of whole blood or isolated RBC [^3 H]ATP pools, 10 μl of a 1 ml initial trichloroacetic acid extract are chromatographed. Determinations of [^3 H]ATP levels in blood plasma or RBCs incubation media are performed on 300 μl of an initial 1 ml trichloroacetic acid extract which are lyophilized and redissolved in 15 μl of water. After chromatography, the spots corresponding to the ATP carrier are cut, eluted with 0.5 ml of 4 N ammonium hydroxide, and radioactivity determined in 10 ml of scintillation fluid.
Two hour incubations of washed isolated RBCs containing normal or expanded ATP pools in Hanks' BSS result in relatively small decreases in RBC ATP pools with the expanded pools being maintained well above normal levels (Table 5). The expansions of RBC ATP pools after i.p. administration of AMP or ATP in vivo is presumably the result of their dephosphorylation followed by the RBCs uptake of the adenosine which is generated in situ.

RBC ATP pools [2] = experiment: RBC ATP pools after in vitro incubation of whole mouse blood with 1 mM compound (Table 6); assay type: cell-based; settings: 1 mM compound, 30 min, bioluminometry
Description: ^+ RBC ATP pools were determined in isolated washed RBCs after
incubations of whole blood with 1 mM of the specified compound by
bioluminometry. Data represent means ± S.D. of three separate

[3] = Inhibition of host weight loss (cancer cachexia) in CT26 tumor-bearing mice; assay type: in vivo, mouse
Description: (§2) A further series of tests are conducted whereby tumors are inoculated by injections of 2.5×10^5 CT26 cells (over 90% viability) in 50 μl of phosphate-buffered saline into the right hind footpad of CB6F1 mice. The treatments were initiated at a variety of times after inoculation of the tumors. The injection schedules started either 1 or 5 days after tumor inoculation when none of the tumors are palpable or when the tumors are clearly palpable (average calculated weight of 100 mg), which occur in 100% of the inoculated mice after 8-11 days. Mice are randomized, divided into groups, and injected daily with 2.2 ml of saline, adenosine, AMP, or ATP (compounds are in sterile saline solutions at concentrations of 25 mM with AMP and ATP solutions adjusted to pH 6.2). Injections are administered intraperitoneally with 30 gauge needles and the mice are lightly anesthetized with […]. The mice are weighed and tumor sizes measured before the start of the treatment schedule and every three days during and after the treatment schedule. These determinations are performed before injections during the treatment period.
(§3) In particular, see FIG. 2. FIG. 2 illustrates inhibition of tumor growth (---) and host weight loss (-) in tumor-bearing mice by treatment with adenine nucleotides. Mice (CB6F1, 8 week old males) bearing palpable CT26 footpad tumors (on day 9 after tumor inoculation) are treated with saline (.smallcircle.), adenosine (o), AMP (Δ), or ATP (.quadrature.) as described herein. An untreated group is also included (x). Arrows indicate days of injection.
(§4) FIG. 3 further illustrates inhibition of host weight loss in tumor-bearing animals by treatment with adenine nucleotides. Mice (CB6F1, males, 7 weeks old, in A, 10 weeks old in B, C) are inoculated with CT26 tumors and daily treatments (for 10 consecutive days) with saline (.smallcircle.), adenosine (o), AMP (Δ), or ATP (.quadrature.) are initiated 1 day (A), 5 days (B), or 9 days after tumor inoculation (when all the tumors were palpable) (C). Arrows indicate days of injection. Experimental procedures were outlined in the text.

[4] = system: CT26 colon adenocarcinoma; experiment: Growth inhibition of footpad CT26 colon adenocarcinoma in CB6F1 mice, second series (FIGS. 2 and 3); assay type: in vivo, mouse
Description: as §2, §3
The magnitude of the antitumor activities of AMP and ATP depends to a small extent on the pH of the solution administered intraperitoneally. This property is probably related to the number of negative charges on the phosphate groups (the pKa of the secondary phosphate is around 6.6). AMP and especially ATP have some buffering capacity, and at a pH below 6.6 they carry a smaller net charge than at a physiological pH. The lower charge of these molecules enhances the initial (first hour) transport of AMP and ATP across the peritoneal membrane and into the systemic circulation (see Torres, et al., 1978, Pharmacol., 17, 330-340). […] The treatment schedule of palpable CT26 tumors which is illustrated in FIG. 2 consistently yields 10-20% of "cures". These mice remain tumor-free for at least two months.
as §4, with “[…])” for “C) are inoculated with CT26 tumors and daily treatments (for 10 consecutive days)”

RBC ATP pools [5] = experiment: Expansion of RBC ATP pools and blood plasma ATP levels after i.p. injection (Table 4); assay type: in vivo, mouse
Description: as §1
Single intraperitoneal injections of 2 ml of 35 mM of AMP or ATP in saline at pH 6.2 into CB6F1 mice result in expansions of RBC ATP pools in these mice (see Table 4).
The expansions of RBC ATP pools after i.p. injections of AMP or ATP could be detected 30 minutes after injections and lasted for approximately 6-8 hours after the nucleotides were completely adsorbed across the peritoneal membrane and into the systemic circulation. The rates of adsorption of intraperitoneal AMP or ATP solutions varied in different strains of mice. […] These plasma ATP levels originate in RBCs since they can be metabolically labeled by [^3 H]adenosine. Plasma ATP pools which originate in the dense granules of blood platelets would not be radioactively labeled under the same conditions (e.g., Holmsen, 1985, Seminars in Hematol, 22, 219-240). The experiments described in Tables 4 and 5 include uptake of [^3 H]adenosine by whole blood (Table 4) or isolated washed RBCs (Table 5 below). In both cases, all the extracellular ATP, determined seconds after the uptake of [^3 H]adenosine, is metabolically labeled.

[6] = 5 hours after i.p. injection of 2 ml of 35 mM, CB6F1, bioluminometry, citrate-dextrose

With `Nc1ncnc2c1ncn2[C@@H]1O[C@H](CO)[C@@H](O)[C@H]1O` [Adenosine, adenosine] the “Medium (Hanks' BSS) [^3 H]ATP levels immediately after [^3 H]adenosine incorporation into isolated, washed RBCs (at time 0)” value (RBC ATP pools [1]; time 0) was 1.20 µM, the “ATP levels in the medium (Hanks' BSS)” value (RBC ATP pools [1]; time 0, bioluminometry) was 1.71 µM and the “RBC ATP pools (37° C.), 0 min” value (RBC ATP pools [1]; washed RBCs in Hanks' BSS, 37° C., 0 min) was 0.69 mM. For the same molecule, the “RBC ATP pools (37° C.), 120 min” value (RBC ATP pools [1]; washed RBCs in Hanks' BSS, 37° C., 120 min) was 0.54 mM, the “RBC ATP pools (after 30 min incubations in heparinized mouse blood)” value (RBC ATP pools [2]) was 0.55 ± 0.17 µM and the “Deaths before stated day after tumor inoculation” value ([3]; FIG. 3, treatment initiated day 1 (A), day 5 (B) or day 9 (C)) was “No deaths occurred before day 19 (A) or day 25 (B,C)”. The “Effect on tumor growth and rate of weight loss, schedules ending before tumors become large” value ([3]; FIGS. 3A and 3B, treatment from day 1 or day 5) was “having only a small effect on either of the two phenomena”, the “Inhibition of host weight loss (in words)” value ([3]; tumors of similar sizes, FIG. 2 data) was “inhibit weight loss” and the “Anticancer activities against established footpad CT26 colon adenocarcinoma” value ([4]; CB6F1 mice, in words) was “without such effects”. For the same molecule, the “Deaths before stated day after tumor inoculation” value ([4]; FIG. 2 experiment, palpable CT26 tumors, 10 animals per group) was “No deaths occurred before day 22”, the “Inhibition of growth of palpable CT26 tumors (in words)” value ([4]; daily i.p. in 2.2 ml saline, pH 6.2, 12 days, starting after tumors palpable, equimolar amounts) was “Much weaker anticancer activities” and the “Plasma ATP levels” value (RBC ATP pools [5]; [6]) was 1.12 ± 0.28 µM. The “RBC ATP pools” value (RBC ATP pools [5]; [6]) was 1.10 ± 0.24 mM, the “Plasma [^3 ]ATP levels immediately after [^3 H]adenosine incorporation into whole blood” value (RBC ATP pools [5]; 5 hours after i.p. injection of 2 ml of 35 mM, CB6F1, radioactivity corrected by RBC specific radioactivity) was 0.77 ± 0.30 µM and the “Expansion of RBC ATP pools (in words)” value (RBC ATP pools [5]; i.p. injection, host animals) was “only slightly effective in expanding mouse RBC ATP pools”.
